Measured values reported in ChEMBL document CHEMBL5375985, “Discovery of JN122, a Spiroindoline-Containing Molecule that Inhibits MDM2/p53 Protein-Protein Interaction and Exerts Robust In Vivo Antitumor Efficacy” (J Med Chem, 2023).

Key:
RKO = assay: Antiproliferative activity against human RKO cells harboring p53 assessed inhibition of cell growth incubated for 4 days by CCK-8 assay; conditions: 96 h
HCT-116 [1] = assay: Antiproliferative activity against human HCT-116 cells harboring p53 assessed inhibition of cell growth incubated for 4 days by CCK-8 assay; conditions: HCT-116, 96 h
U2OS = assay: Antiproliferative activity against human U2OS cells harboring p53 assessed inhibition of cell growth incubated for 4 days by celltiter-glo assay; conditions: 96 h
[2] = target: Tumour suppressor p53/oncoprotein Mdm2 (Homo sapiens, UniProt Q00987); assay: Binding affinity to MDM2/p53 (unknown origin) assessed as inhibition constant by FP assay
Chain of Tumour suppressor p53/oncoprotein Mdm2 (P04637 whole entry): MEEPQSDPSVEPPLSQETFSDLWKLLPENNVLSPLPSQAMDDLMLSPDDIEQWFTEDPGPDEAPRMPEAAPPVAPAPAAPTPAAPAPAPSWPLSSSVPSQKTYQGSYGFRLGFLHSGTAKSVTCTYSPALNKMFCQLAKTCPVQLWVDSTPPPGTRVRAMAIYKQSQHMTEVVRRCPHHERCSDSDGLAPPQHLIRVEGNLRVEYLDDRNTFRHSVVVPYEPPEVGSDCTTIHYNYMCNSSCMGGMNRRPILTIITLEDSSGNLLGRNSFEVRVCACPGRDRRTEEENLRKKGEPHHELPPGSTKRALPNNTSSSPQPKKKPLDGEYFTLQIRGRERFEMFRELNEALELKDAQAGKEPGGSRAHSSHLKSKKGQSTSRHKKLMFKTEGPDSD
Chain of Tumour suppressor p53/oncoprotein Mdm2 (Q00987 whole entry): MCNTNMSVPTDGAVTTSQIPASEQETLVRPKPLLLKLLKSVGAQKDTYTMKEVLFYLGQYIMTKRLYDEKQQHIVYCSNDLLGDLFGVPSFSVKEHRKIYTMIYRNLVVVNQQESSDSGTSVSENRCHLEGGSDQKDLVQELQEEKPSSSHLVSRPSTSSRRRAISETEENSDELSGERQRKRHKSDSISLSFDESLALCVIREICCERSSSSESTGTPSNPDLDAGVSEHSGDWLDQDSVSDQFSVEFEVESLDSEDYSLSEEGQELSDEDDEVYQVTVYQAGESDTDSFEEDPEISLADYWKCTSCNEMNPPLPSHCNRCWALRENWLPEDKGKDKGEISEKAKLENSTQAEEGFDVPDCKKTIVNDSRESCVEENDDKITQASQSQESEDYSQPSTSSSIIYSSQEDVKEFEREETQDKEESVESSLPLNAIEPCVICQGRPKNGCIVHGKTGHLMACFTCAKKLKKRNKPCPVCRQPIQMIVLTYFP

[3] = target: Tumour suppressor protein p53/Mdm4 (Homo sapiens, UniProt O15151); assay: Binding affinity to MDM4/p53 (unknown origin) assessed as inhibition constant by FP assay
Chain of Tumour suppressor protein p53/Mdm4 (P04637 whole entry, one chain of several): as the sequence (P04637 whole entry) above

HCT-116 [4] = assay: Antiproliferative activity against human HCT-116 cells harboring p53 assessed inhibition of cell growth incubated for 4 days by celltiter-glo assay; conditions: HCT-116, 96 h
Protein Mdm4 = target: T1, Protein Mdm4 (Homo sapiens, UniProt O15151); assay: biochemical
T1 sequence (O15151 whole entry): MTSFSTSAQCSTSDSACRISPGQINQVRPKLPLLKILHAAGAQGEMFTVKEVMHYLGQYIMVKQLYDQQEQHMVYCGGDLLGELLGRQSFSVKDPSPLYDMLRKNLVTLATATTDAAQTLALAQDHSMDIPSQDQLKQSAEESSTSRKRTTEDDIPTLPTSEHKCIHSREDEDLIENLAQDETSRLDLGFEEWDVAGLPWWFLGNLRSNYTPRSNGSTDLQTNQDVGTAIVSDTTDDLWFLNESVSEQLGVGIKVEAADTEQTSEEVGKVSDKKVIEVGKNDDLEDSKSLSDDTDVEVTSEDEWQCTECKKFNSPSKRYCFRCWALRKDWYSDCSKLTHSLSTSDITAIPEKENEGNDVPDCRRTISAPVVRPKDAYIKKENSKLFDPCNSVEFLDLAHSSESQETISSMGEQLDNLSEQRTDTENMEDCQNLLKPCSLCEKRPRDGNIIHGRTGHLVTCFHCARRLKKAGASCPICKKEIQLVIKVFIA
Description: Inhibition of MDM4 (14 to 111 residues)/p53 (unknown origin) interaction expressed in Escherichia coli BL21(DE3) cells assessed as inhibition constant incubated for 1.5 hrs by competitive fluorescence polarization assay

SW480 = assay: Growth inhibition of human SW480 cells incubated for 4 days by CCK-8 assay; conditions: SW480, 96 h
MSTO-211H = assay: cells; conditions: Homo sapiens, 96 h
Description: Growth inhibition of human MSTO-211H cells harboring p53 incubated for 4 days by CCK-8 assay

NCI-H460 = assay: Growth inhibition of human NCI-H460 cells harboring p53 incubated for 4 days by CCK-8 assay; conditions: NCI-H460, 96 h
HepG2 = assay: Growth inhibition of human HepG2 cells harboring p53 incubated for 4 days by celltiter glo assay; conditions: HepG2, 96 h
HeLa = assay: Growth inhibition of human HeLa cells harboring p53 incubated for 4 days by CCK-8 assay; conditions: 96 h
A549 = assay: Growth inhibition of human A549 cells harboring p53 incubated for 4 days by CCK-8 assay; conditions: A549, 96 h

Compound: CCN1[C@@H](CC(C)(C)C)[C@@]2(CNc3cc(Cl)ccc32)[C@@H](c2ccccc2Cl)[C@@H]1C(=O)Nc1ccc(C(=O)O)cc1OC
- IC50 (RKO): 5240 nM
- IC50 (HCT-116 [1]): 2040 nM
- IC50 (U2OS): 2820 nM

Compound: O=C1CN(C(=O)N2C(c3ccc4c(c3)C(=O)NCC(=O)N4c3ccccc3)=N[C@@H](c3ccc(Cl)cc3)[C@H]2c2ccc(Cl)cc2)CCN1
- Ki [2]: 2.1 nM
- Ki [3]: 10.8 nM

Compound: CCN1[C@@H](CC(C)(C)C)[C@@]2(CNc3cc(Cl)ccc32)[C@@H](c2ccccc2F)[C@@H]1C(=O)Nc1ccc(C(=O)O)cc1OC
- IC50 (RKO): 2940 nM
- IC50 (HCT-116 [1]): 865 nM
- IC50 (U2OS): 3410 nM

Compound: COc1cc(C(=O)O)ccc1NC(=O)[C@@H]1N[C@@H](CC(C)(C)C)[C@@]2(CNc3cc(Cl)ccc32)[C@H]1c1cccc(F)c1
- IC50 (RKO): 66.9 nM
- IC50 (HCT-116 [1]): 1.3 nM

Compound: CCN1[C@@H](CC(C)(C)C)[C@@]2(CNc3cc(Cl)ccc32)[C@@H](c2cccc(C)c2)[C@@H]1C(=O)Nc1ccc(C(=O)O)cc1OC
- IC50 (RKO): 1010 nM
- IC50 (HCT-116 [1]): 144 nM
- IC50 (U2OS): 625 nM

Compound: COc1cc(C(=O)O)ccc1NC(=O)[C@@H]1N[C@@H](CC(C)(C)C)[C@@]2(CNc3cc(Cl)ccc32)[C@H]1c1cccc(Cl)c1
- IC50 (HCT-116 [4]): < 1 nM
- IC50 (RKO): 12.9 nM

Compound: CCN1[C@@H](CC(C)(C)C)[C@@]2(CNc3ccc(Cl)cc32)[C@@H](c2cccc(Cl)c2Cl)[C@@H]1C(=O)Nc1ccc(C(=O)O)cc1OC
- IC50 (RKO): 4430 nM
- IC50 (HCT-116 [1]): 1400 nM
- IC50 (U2OS): 1840 nM

Compound: CCN1[C@@H](CC(C)(C)C)[C@@]2(CNc3cc(Cl)ccc32)[C@@H](c2cccc(F)c2)[C@@H]1C(=O)Nc1ccc(C(=O)O)cc1OC
- IC50 (RKO): 172 nM
- IC50 (HCT-116 [1]): 25.7 nM
- IC50 (U2OS): 304 nM

Compound: COc1cc(C(=O)O)ccc1NC(=O)[C@@H]1N[C@@H](CC(C)(C)C)[C@@]2(CNc3cc(Cl)ccc32)[C@H]1c1cccc(C)c1
- IC50 (RKO): 436 nM
- IC50 (HCT-116 [1]): 10 nM

Compound: CCN1[C@@H](CC(C)(C)C)[C@@]2(CNc3cc(Cl)ccc32)[C@@H](c2cccc(Cl)c2Cl)[C@@H]1C(=O)Nc1ccc(C(=O)O)cc1OC
- IC50 (RKO): 330 nM
- IC50 (HCT-116 [1]): 75.5 nM
- IC50 (U2OS): 647 nM

Compound: CNC(=O)c1ccc(NC(=O)[C@@H]2N[C@@H](CC(C)(C)C)[C@@]3(CNc4cc(Cl)ccc43)[C@H]2c2cccc(Cl)c2F)c(OC)c1
- Ki (Protein Mdm4): > 27 nM
- IC50 (RKO): 243 nM
- IC50 (HCT-116 [1]): 22 nM

Compound: COc1ccc(C2=N[C@@H](c3ccc(Cl)cc3)[C@@H](c3ccc(Cl)cc3)N2C(=O)N2CCNC(=O)C2)c(OC(C)C)c1 [NUTLIN-3]
- IC50 (SW480): 24.1 nM
- IC50 (MSTO-211H): 2800 nM
- IC50 (NCI-H460): 6.49 nM
- IC50 (RKO): 1920 nM
- IC50 (HCT-116 [1]): 1040 nM
- IC50 (HepG2): 2050 nM
- IC50 (HeLa): 28.2 nM
- IC50 (A549): 1880 nM
